Measured values as given in patent US20230114728A1 (Venatorx Pharmaceuticals, Inc., priority 2019, published 2023).
Converted amounts (≈) assume the structure as drawn.

Assays:
Assay in all cases: Broth microdilution MIC in CAMHB
Type in all cases: cell-based
A. baumannii ATCC 19606 = details: Acinetobacter baumannii, ATCC19606; MHB; read-out: Minimum Inhibitory Concentration, A. baumannii ATCC 19606
How it was run: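 Hyper-permeable or efflux-deficient strains serve to probe outer-membrane penetration. Growth inhibition is scored visually after 16-20 h at 37° C in CAMHB, starting from 2-8×10^5 CFU/mL.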

E. coli 901C = details: Escherichia coli; E. coli 901C (hyper-permeable); MHB; read-out: Minimum Inhibitory Concentration, E. coli 901C
How it was run: (§1)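 Colonies from cation-adjusted Mueller Hinton agar are grown in broth (3-5 h, 37° C), adjusted by OD600, and added at 2-8×10^5 CFU/mL to 2-fold compound dilutions. After 16-20 h at 37° C, the lowest concentration without growth is taken as MIC.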

E. coli AG100A = details: Escherichia coli, read-out: Minimum Inhibitory Concentration, E. coli AG100A
How it was run: as §1

E. coli AG100 = details: Escherichia coli; E. coli AG100 (wild-type parent); MHB; read-out: Minimum Inhibitory Concentration, E. coli AG100
How it was run: as §1

E. coli ATCC 25922 = details: Escherichia coli, ATCC25922; E. coli ATCC 25922; MHB; read-out: Minimum Inhibitory Concentration, E. coli 25922
How it was run: as §1

E. coli D22 = details: Escherichia coli; E. coli D22 (hyper-permeable); MHB; read-out: Minimum Inhibitory Concentration, E. coli D22
How it was run: as §1

[1] = system: K. pneumoniae 848844 producing SHV-11 and KPC-2; details: Klebsiella pneumoniae, read-out: Minimum Inhibitory Concentration, K. pneumoniae 848844
How it was run: as §1

[2] = system: K. pneumoniae SI-117 producing VIM-1; details: Klebsiella pneumoniae, read-out: Minimum Inhibitory Concentration, K. pneumoniae SI-117
How it was run: as §1

[3] = system: K. pneumoniae UMM producing SHV-5 and KPC-2; details: Klebsiella pneumoniae, read-out: Minimum Inhibitory Concentration, K. pneumoniae UMM
How it was run: as §1

[4] = system: P. aeruginosa (ΔmexAB-oprM); details: Pseudomonas aeruginosa, read-out: Minimum Inhibitory Concentration, P. aeruginosa ΔmexAB-OprM
How it was run: as §1

P. aeruginosa ATCC 27853 = details: Pseudomonas aeruginosa, ATCC27853; MHB; read-out: Minimum Inhibitory Concentration, P. aeruginosa ATCC 27853
How it was run: as §1

P. aeruginosa ATCC 35151 = details: Pseudomonas aeruginosa, ATCC35151; MHB; hyper-permeable strain; read-out: Minimum Inhibitory Concentration, P. aeruginosa ATCC 35151
How it was run: as §1

With `CCN1CCN(C(=O)NC(C(=O)N[C@H]2Cc3cccc(C(=O)O)c3OB2O)c2ccc(O)c(NC(C)=O)c2)C(=O)C1=O` (stereo partly drawn) [Example 17, (3R)-3-(2-(3-acetamido-4-hydroxyphenyl)-2-(4-ethyl-2,3-dioxopiperazine-1-carboxamido)acetamido)-2-hydroxy-3,4-dihydro-2H-benzo[e][1,2]oxaborinine-8-carboxylic acid] the MIC (A. baumannii ATCC 19606) was over 128 µg/mL, the MIC (E. coli 901C) was 0.5 to 1 µg/mL (≈ 0.86 to 1.72 µM) and the MIC (E. coli AG100A) was 8 to 16 µg/mL (≈ 13.8 to 27.5 µM). It also gave an MIC (E. coli AG100) of over 128 µg/mL, an MIC (E. coli ATCC 25922) of over 128 µg/mL and an MIC (E. coli D22) of 2 to 4 µg/mL (≈ 3.44 to 6.88 µM). For the same compound, the MIC [1] was over 128 µg/mL, the MIC [2] was over 128 µg/mL and the MIC [3] was 32 to 64 µg/mL (≈ 55 to 110 µM). The MIC [4] was 8 to 16 µg/mL (≈ 13.8 to 27.5 µM), the MIC (P. aeruginosa ATCC 27853) was over 128 µg/mL and the MIC (P. aeruginosa ATCC 35151) was 2 to 4 µg/mL (≈ 3.44 to 6.88 µM).

`CCN1CCN(C(=O)NC(C(=O)N[C@H]2Cc3ccc(F)c(C(=O)O)c3OB2O)c2nc(N)sc2F)C(=O)C1=O` (stereo partly drawn) [Example 18, (3R)-3-(2-(2-amino-5-fluorothiazol-4-yl)-2-(4-ethyl-2,3-dioxopiperazine-1-carboxamido)acetamido)-7-fluoro-2-hydroxy-3,4-dihydro-2H-benzo[e][1,2]oxaborinine-8-carboxylic acid] showed an MIC (A. baumannii ATCC 19606) of over 128 µg/mL, an MIC (E. coli 901C) of 0.5 to 1 µg/mL (≈ 0.883 to 1.77 µM) and an MIC (E. coli AG100A) of 2 to 4 µg/mL (≈ 3.53 to 7.06 µM). The MIC (E. coli AG100) was 32 to 64 µg/mL (≈ 56.5 to 113 µM), the MIC (E. coli ATCC 25922) was 8 to 16 µg/mL (≈ 14.1 to 28.3 µM) and the MIC (E. coli D22) was 2 to 4 µg/mL (≈ 3.53 to 7.06 µM). For the same compound, the MIC [1] was 32 to 64 µg/mL (≈ 56.5 to 113 µM), the MIC [2] was 32 to 64 µg/mL (≈ 56.5 to 113 µM) and the MIC [3] was 8 to 16 µg/mL (≈ 14.1 to 28.3 µM). It also gave an MIC [4] of 8 to 16 µg/mL (≈ 14.1 to 28.3 µM), an MIC (P. aeruginosa ATCC 27853) of over 128 µg/mL and an MIC (P. aeruginosa ATCC 35151) of 0.5 to 1 µg/mL (≈ 0.883 to 1.77 µM).

With `CCN1CCN(C(=O)N[C@H](C(=O)N[C@H]2Cc3cccc(C(=O)O)c3OB2O)c2nc(Cl)c(C(=O)O)cc2F)C(=O)C1=O` [Example 19, 6-((S)-2-(((R)-8-carboxy-2-hydroxy-3,4-dihydro-2H-benzo[e][1,2]oxaborinin-3-yl)amino)-1-(4-ethyl-2,3-dioxopiperazine-1-carboxamido)-2-oxoethyl)-2-chloro-5-fluoronicotinic acid] the MIC (A. baumannii ATCC 19606) was over 128 µg/mL, the MIC (E. coli 901C) was 0.5 to 1 µg/mL (≈ 0.825 to 1.65 µM) and the MIC (E. coli AG100A) was 32 to 64 µg/mL (≈ 52.8 to 106 µM). For the same compound, the MIC (E. coli AG100) was over 128 µg/mL, the MIC (E. coli ATCC 25922) was over 128 µg/mL and the MIC (E. coli D22) was 2 to 4 µg/mL (≈ 3.3 to 6.6 µM). For the same compound, the MIC [1] was over 128 µg/mL, the MIC [2] was over 128 µg/mL and the MIC [3] was over 128 µg/mL. It also gave an MIC [4] of 32 to 64 µg/mL (≈ 52.8 to 106 µM), an MIC (P. aeruginosa ATCC 27853) of over 128 µg/mL and an MIC (P. aeruginosa ATCC 35151) of 0.5 to 1 µg/mL (≈ 0.825 to 1.65 µM).

With `CCN1CCN(C(=O)NC(C(=O)N[C@H]2Cc3cccc(C(=O)O)c3OB2O)c2ncc(C(=O)O)cc2F)C(=O)C1=O` (stereo partly drawn) [Example 20, 6-(2-(((R)-8-carboxy-2-hydroxy-3,4-dihydro-2H-benzo[e][1,2]oxaborinin-3-yl)amino)-1-(4-ethyl-2,3-dioxopiperazine-1-carboxamido)-2-oxoethyl)-5-fluoronicotinic acid] the MIC (A. baumannii ATCC 19606) was over 128 µg/mL, the MIC (E. coli 901C) was under 0.25 µg/mL and the MIC (E. coli AG100A) was 8 to 16 µg/mL (≈ 14 to 28 µM). The MIC (E. coli AG100) was 32 to 64 µg/mL (≈ 56 to 112 µM), the MIC (E. coli ATCC 25922) was over 128 µg/mL and the MIC (E. coli D22) was 2 to 4 µg/mL (≈ 3.5 to 7 µM). For the same compound, the MIC [1] was over 128 µg/mL, the MIC [2] was over 128 µg/mL and the MIC [3] was 32 to 64 µg/mL (≈ 56 to 112 µM). The MIC [4] was 8 to 16 µg/mL (≈ 14 to 28 µM), the MIC (P. aeruginosa ATCC 27853) was over 128 µg/mL and the MIC (P. aeruginosa ATCC 35151) was 0.5 to 1 µg/mL (≈ 0.875 to 1.75 µM).

Work on `CCN1CCN(C(=O)NC(C(=O)N[C@H]2Cc3cccc(C(=O)O)c3OB2O)c2ccc(O)c(N(S(C)(=O)=O)S(C)(=O)=O)c2)C(=O)C1=O` (stereo partly drawn) [Example 21, (3R)-3-(2-(4-ethyl-2,3-dioxopiperazine-1-carboxamido)-2-(4-hydroxy-3-(N-(methylsulfonyl)methylsulfonamido)phenyl)acetamido)-2-hydroxy-3,4-dihydro-2H-benzo[e][1,2]oxaborinine-8-carboxylic acid] yielded an MIC (A. baumannii ATCC 19606) of over 128 µg/mL, an MIC (E. coli 901C) of under 0.25 µg/mL and an MIC (E. coli AG100A) of 2 to 4 µg/mL (≈ 2.88 to 5.75 µM). It also gave an MIC (E. coli AG100) of 32 to 64 µg/mL (≈ 46 to 92 µM), an MIC (E. coli ATCC 25922) of over 128 µg/mL and an MIC (E. coli D22) of 2 to 4 µg/mL (≈ 2.88 to 5.75 µM). It also gave an MIC [1] of over 128 µg/mL, an MIC [2] of over 128 µg/mL and an MIC [3] of 32 to 64 µg/mL (≈ 46 to 92 µM). The MIC [4] was 32 to 64 µg/mL (≈ 46 to 92 µM), the MIC (P. aeruginosa ATCC 27853) was over 128 µg/mL and the MIC (P. aeruginosa ATCC 35151) was 2 to 4 µg/mL (≈ 2.88 to 5.75 µM).

Compound `CCN1CCN(C(=O)NC(C(=O)N[C@H]2Cc3cccc(C(=O)O)c3OB2O)c2ccc(O)c(NS(C)(=O)=O)c2)C(=O)C1=O` (stereo partly drawn) [Example 22, (3R)-3-(2-(4-ethyl-2,3-dioxopiperazine-1-carboxamido)-2-(4-hydroxy-3-(methylsulfonamido)phenyl)acetamido)-2-hydroxy-3,4-dihydro-2H-benzo[e][1,2]oxaborinine-8-carboxylic acid] has an MIC (A. baumannii ATCC 19606) of over 128 µg/mL, an MIC (E. coli 901C) of under 0.25 µg/mL and an MIC (E. coli AG100A) of 2 to 4 µg/mL (≈ 3.24 to 6.48 µM). The MIC (E. coli AG100) was 32 to 64 µg/mL (≈ 51.8 to 104 µM), the MIC (E. coli ATCC 25922) was 32 to 64 µg/mL (≈ 51.8 to 104 µM) and the MIC (E. coli D22) was 2 to 4 µg/mL (≈ 3.24 to 6.48 µM). It also gave an MIC [1] of over 128 µg/mL, an MIC [2] of 32 to 64 µg/mL (≈ 51.8 to 104 µM) and an MIC [3] of 32 to 64 µg/mL (≈ 51.8 to 104 µM). For the same compound, the MIC [4] was 8 to 16 µg/mL (≈ 13 to 25.9 µM), the MIC (P. aeruginosa ATCC 27853) was over 128 µg/mL and the MIC (P. aeruginosa ATCC 35151) was 0.5 to 1 µg/mL (≈ 0.81 to 1.62 µM).
